From patent US9029410B2, “Pharmaceutical compositions for the treatment of movement disorders” (Sarah Herzog Memorial Hospital Ezrath Nashim Association, priority 2003, dated 2015)
Where two headings read alike, the source gives them in different places.

How the values were obtained:
patients [1] = settings: Tsai and Coyle '875; low baseline levels; cited from earlier work
schizophrenia patients [2] = assay: PANSS, crossover trials of D-cycloserine (pooled); assay type: in vivo, human; settings: mean ± sd
Method: (§1) Patients fulfilled criteria for treatment resistance used in previous trials of glycine and had been receiving stable doses of olanzapine or risperidone for at least 3 months before study entry. Medication doses remained fixed throughout the study.
(§2) Methods for this study are the same as in example 1, except that D-cycloserine (50 mg/d) was used for treatment. As previously, outcome was assessed using the PANSS, SAS and AIMS. In addition, the Schedule for Assessment of Negative Symptoms (SANS) was used to provide further assessment of negative symptoms. Data are pooled from two previously published studies (Heresco-Levy et al., 1998, 2002). Because analyses were confirmatory, one-tailed statistics were used throughout.

schizophrenia patients [3] = assay: SAS, crossover trials of D-cycloserine (pooled); assay type: in vivo, human
Method: as §1, §2

MPTP-treated monkeys [4] = settings: low dose (320 or 1000 mg/kg as printed); cited from earlier work
schizophrenia patients [5] = assay: AIMS, crossover trials of D-cycloserine (pooled); assay type: in vivo, human
Method: as §1, §2

MPTP-treated monkeys [6] = settings: cited from earlier work
patients [7] = settings: D-serine combined with clozapine; Tsai et al., 1999; cited from earlier work
schizophrenia patients [8] = assay: SANS, crossover trial of D-serine; assay type: in vivo, human
Source text: (§3) The study was approved by the appropriate institutional review boards. Seventeen stable inpatients meeting DSM-IV criteria for schizophrenia and free of other axis I diagnoses or significant medical illness were enrolled in the study. Diagnosis was established on the basis of semistructured psychiatric interviews, review of all available medical records, and confirmation by two board-certified psychiatrists. […] Medication doses remained fixed throughout the study.
After complete description of the study, written informed consent was obtained from all participating patients. […] Patients were assessed biweekly with the Positive and Negative Syndrome Scale (PANSS), Brief Psychiatric Rating Scale (BPRS), Simpson-Angus Rating Scale (SAS), and Abnormal Involuntary Movement Scale (AIMS) performed by one trained research psychiatrist, as previously described (3). CBC and SMA-20 measures were assessed biweekly throughout the study. Trough glycine and serine serum levels were assessed at baseline and at the end of the two treatment phases. Data were analyzed by repeated measures ANOVA with within group factor of study phase (glycine/placebo) and time within study phase (pre/post), and between group factor of treatment order. […]

schizophrenia patients [9] = assay: SAS, crossover trial of D-serine; assay type: in vivo, human
Source text: as §3
(§4) After complete description of the study, written informed consent was obtained from all participating patients. The double-blind, placebo-controlled, crossover study consisted of two random-order 6-week treatment arms (glycine 0.8 g/kg/day, or placebo), separated by a 2-week adjuvant treatment washout. Patients were assessed biweekly with the Positive and Negative Syndrome Scale (PANSS), Brief Psychiatric Rating Scale (BPRS), Simpson-Angus Rating Scale (SAS), and Abnormal Involuntary Movement Scale (AIMS) performed by one trained research psychiatrist, as previously described (3). CBC and SMA-20 measures were assessed biweekly throughout the study. Trough glycine and serine serum levels were assessed at baseline and at the end of the two treatment phases. Data were analyzed by repeated measures ANOVA with within group factor of study phase (glycine/placebo) and time within study phase (pre/post), and between group factor of treatment order.
(§5) Methods: Methods for this study are the same as in example 1, except that D-serine ([…]=approx. 2.1 g/day) was used for treatment. As previously, outcome was assessed using the PANSS, SAS and AIMS. In addition, the Schedule for Assessment of Negative Symptoms (SANS) was used to provide further assessment of negative symptoms. This represents an interim analysis of an ongoing study. Data were analyzed by between-treatment t-test of change scores during D-serine or placebo treatment. Data are analyzed only from subjects (n=23) who completed both study phases.

schizophrenia patients [10] = assay: AIMS, crossover trial of D-serine; assay type: in vivo, human
Source text: as §3, §4, §5

schizophrenia patients [11] = assay: PANSS, crossover trial of D-serine; assay type: in vivo, human; parameters: PANSS Positive Symptoms, treatment week 6: dose or concentration left out as unconfirmed; settings: mean ± sd
Source text: as §3, §4, §5

[12] = tested on: haloperidol-treated Sprague-Dewley rats
Method: In this model, animals are treated chronically with antipsychotics and their vacuous chewing motions are assessed by observation.
Sprague-Dewley rats (Harlan Laboratories, Jerusalem, Israel) weighing 150 to 170 g. were used. The rats were housed in polycarbonate cages (4 in each cage), maintained under a 12 hour-12 hour dark-light (04.00-16.00 hours) cycle, and were allowed water ad libitum. In order to limit neuroleptic-induced weight gain, the food was restricted to 15 g. pellets per animal per day, as used by Andreassen et al (1996). Rats were weighed biweekly throughout the study. Room temperature was maintained at 22±2° C. All procedures were conducted in accordance with local and international laws for the care and use of laboratory animals.
For two weeks prior to the first drug injection, animals were handled daily and habituated to the animal colony and the procedures related to drug administration and video recording situation. Subsequently (week 0), rats underwent a behavior video recording session following which they were randomized to a haloperidol treatment and a control group. The rats in the treatment group received an intramuscular injection in the thigh muscles with haloperidol decanoate (Pericate, Unipharm Ltd., Tel Aviv, Israel), 100 mg/ml in sesame oil, at a dose of 0.35 mg/kg. The control rats were similarly injected with an equal volume of phosphate buffered saline (PBS). Twenty-three G hypodermic needles were used for all injections. […]
Rats underwent a video recorded behavior assessment session 30-150 minutes following the injection. Two weeks after the test day (i.e., post-test day), the video recorded behavior assessment session was repeated in order to investigate longer-term effects of the experimental treatments. […]
A trained observer, unaware of the treatment received by the rats, scored the behavior while watching the videotapes. […] The statistical significance of interaction of the between group factor and the repeated measures factor is determined in the [sequence] software package using the Rao R statistic and the F distribution. […]

schizophrenia patients [13] = settings: prior study, Heresco-Levy et al., 1999, Table 3, cited from earlier work
[14] = tested on: inpatients with treatment-resistant schizophrenia
Source text: as §3, §4

schizophrenia patients [15] = settings: prior study, Heresco-Levy et al., 1999, Table 3, cited from earlier work; remark: listed apart in the source
[16] = tested on: inpatients with treatment-resistant schizophrenia; settings: glycine 0.8 g/kg/day; 2 patients; ceased following discontinuation
Source text: Three of the 14 patients who completed the study were women and 11 were men. Their mean age was 46.5 years (SD=9.6), the mean duration of their illness was 25.8 years (SD=11.0) and the mean duration of their current hospitalization was 3.0 years (SD=3.7).

[17] = D-cycloserine 50 mg/d, week 6, n=26
[18] = D-cycloserine 50 mg/d, week 6 minus week 0
[19] = D-cycloserine phase, week 0, n=26
[20] = D-cycloserine 50 mg/d, week 6, mean ± sd, n=26
[21] = D-cycloserine 50 mg/d, week 6 minus week 0, mean ± sd
[22] = D-cycloserine phase, week 0, mean ± sd, n=26
[23] = D-serine phase, week 0, mean ± sd, n=23
[24] = D-serine, week 6, mean ± sd, n=23
[25] = D-serine, week 6 minus week 0, mean ± sd
[26] = during D-serine treatment, 6 weeks
[27] = glycine 0.8 g/kg/day vs placebo, 6 weeks
[28] = glycine 0.8 g/kg/day, week 6, mean, n=14
[29] = glycine phase, baseline, mean, n=14
[30] = mean (sd), reduction over 6 weeks of glycine 0.8 g/kg/day
[31] = mean (sd), reduction over 6 weeks of glycine 0.8 g/kg/day, listed as glycine

## C[C@@H](N)C(=O)O [D-alanine]
Patients [1]
  Changes in SAS or AIMS scores: no significant changes

## N[C@@H]1CONC1=O [D-cycloserine]
Schizophrenia patients [2]; [17]
  PANSS General Psychopathaology, week 6 within treatment phase: 53.8 ± 8.2
  PANSS Negative symptoms, week 6 within treatment phase: 31.4 ± 6.5
  PANSS Positive symptoms, week 6 within treatment phase: 24.6 ± 4.1
  PANSS Total Symptoms, week 6 within treatment phase: 109.7 ± 15.8
Schizophrenia patients [2]; [18]
  PANSS General Psychopathaology, Ä symptoms: −4.9 ± 6.2
  PANSS Negative symptoms, Ä symptoms: −3.2 ± 2.5
  PANSS Positive symptoms, Ä symptoms: −2.1 ± 2.6
  PANSS Total Symptoms, Ä symptoms: −10.2 ± 8.9
Schizophrenia patients [2]; [19]
  PANSS General Psychopathaology, week 0 within treatment phase: 58.7 ± 8.4
  PANSS Negative symptoms, week 0 within treatment phase: 34.6 ± 6.2
  PANSS Positive symptoms, week 0 within treatment phase: 26.7 ± 4.5
  PANSS Total Symptoms, week 0 within treatment phase: 120 ± 16.7
Schizophrenia patients [3]; D-cycloserine 50 mg/d vs placebo, t=1.77, one tailed
  Effect on Parkinsonian symptoms (SAS): nearly significant improvement
Schizophrenia patients [3]; [20]
  SAS, week 6 within treatment phase: 3.6 ± 2.1
Schizophrenia patients [3]; [21]
  SAS, Ä symptoms: −0.7 ± 1.7
Schizophrenia patients [3]; [22]
  SAS, week 0 within treatment phase: 4.3 ± 2.4
MPTP-treated monkeys [4]
  Variable delayed-response task (VDR) performance: significantly improved
Schizophrenia patients [5]; D-cycloserine 50 mg/d vs placebo, t=2.21, p<0.025, one tailed
  Effect on dyskinetic symptoms (AIMS): significant reduction
Schizophrenia patients [5]; [20]
  AIMS, week 6 within treatment phase: 3.9 ± 3
Schizophrenia patients [5]; [21]
  AIMS, Ä symptoms: −0.8 ± 1.3
Schizophrenia patients [5]; [22]
  AIMS, week 0 within treatment phase: 4.7 ± 3.1
MPTP-treated monkeys [6]
  Bradykinesia, tremor or other core Parkinsonian symptoms: did not show improvement

## N[C@H](CO)C(=O)O [D-serine]
Patients [7]
  Change in SAS or AIMS scores: did not find significant change
Schizophrenia patients [8]; week 6, mean ± sd, n=23
  SANS Total (with globals), treatment week 6: 51.9 ± 8.0
Schizophrenia patients [8]; week 6 minus week 0, mean ± sd
  SANS Total (with globals), Δ symptoms: −9.0 ± 4.3
Schizophrenia patients [9]; [23]
  SAS, treatment week 0: 4.2 ± 1.4
Schizophrenia patients [9]; [24]
  SAS, treatment week 6: 2.4 ± 0.8
Schizophrenia patients [9]; [25]
  SAS, Δ symptoms: −1.8 ± 1.3
Schizophrenia patients [9]; [26]
  Decline in Parkinsonian symptoms as rated by the SAS: 42%
Schizophrenia patients [10]; [23]
  AIMS, treatment week 0: 3.0 ± 0.8
Schizophrenia patients [10]; [24]
  AIMS, treatment week 6: 1.6 ± 1.2
Schizophrenia patients [10]; [25]
  AIMS, Δ symptoms: −1.4 ± 1.1
Schizophrenia patients [10]; [26]
  Decline in dyskinetic symptoms as rated by the AIMS: 50%
Schizophrenia patients [11]; D-serine phase, week 0, n=23
  PANSS Cognitive symptoms, treatment week 0: 8.5 ± 2.2
  PANSS Depression, treatment week 0: 5.3 ± 2.6
  PANSS Excitement, treatment week 0: 1.6 ± 1.5
  PANSS Negative symptoms, treatment week 0: 3.9 ± 4.0
  PANSS Positive Symptoms, treatment week 0: 4.2 ± 2.3
Schizophrenia patients [11]; D-serine, week 6, n=23
  PANSS Cognitive symptoms, treatment week 6: 17.1 ± 2.7
  PANSS Depression, treatment week 6: 13.8 ± 2.2
  PANSS Excitement, treatment week 6: 10.9 ± 1.4
  PANSS Negative symptoms, treatment week 6: 21.0 ± 3.5
  PANSS Positive Symptoms, treatment week 6: 13.0 ± 2.3
Schizophrenia patients [11]; D-serine, week 6 minus week 0
  PANSS Cognitive symptoms, Δ symptoms: −1.4 ± 1.3
  PANSS Depression, Δ symptoms: −1.5 ± 1.8
  PANSS Excitement, Δ symptoms: −0.7 ± 1.2
  PANSS Negative symptoms, Δ symptoms: −2.9 ± 1.9
  PANSS Positive Symptoms, Δ symptoms: −1.2 ± 1.1

## NCC(=O)O [Glycine, glycine]
[12]; 2 weeks after acute glycine 1.6 g/kg, p<0.07, VCM returned to pre-treatment levels
  Number of VCM at baseline vs post-test day: did not differ significantly
[12]; glycine 1.6 g/kg intraperitoneal, acute, p<0.01
  VCM frequency, glycine vs placebo group at test day: significantly lower VCM frequency
[12]; glycine 1.6 g/kg intraperitoneal, test day vs baseline, 30-150 minutes after injection, p<0.001
  Reduction in the number of VCM episodes: 82%
Schizophrenia patients [13]
  SAS score before glycine treatment: 1.3 points
Schizophrenia patients [13]; not significant vs placebo
  SAS score after glycine treatment: 0.6 points
[14]; 6 weeks glycine, vs 0.3 point increase during placebo, p<0.02
  AIMS score decrease during glycine treatment: 1.0 point
[14]; 6 weeks glycine, vs 0.5 point increase during placebo, p<0.05
  SAS score decrease during glycine treatment: 1.3 points
[14]; [27]
  AIMS, Effect size (d): 0.6
  BPRS Total, Effect size (d): 1.6
  PANSS Cognitive Symptoms, Effect size (d): 0.9
  PANSS Depression, Effect size (d): 0.7
  PANSS Excitement, Effect size (d): 0.6
  PANSS Negative Symptoms, Effect size (d): 2.1
  PANSS Positive Symptoms, Effect size (d): 0.7
  SAS, Effect size (d): 0.6
[14]; [28]
  AIMS, Score at Week 6: 2.6
  BPRS Total, Score at Week 6: 36.6
  PANSS Cognitive Symptoms, Score at Week 6: 17.9
  PANSS Depression, Score at Week 6: 13.4
  PANSS Excitement, Score at Week 6: 12.0
  PANSS Negative Symptoms, Score at Week 6: 20.4
  PANSS Positive Symptoms, Score at Week 6: 14.0
  SAS, Score at Week 6: 4.0
[14]; glycine phase, baseline, mean, 14 inpatients on olanzapine or risperidone
  PANSS Negative Symptoms, Score at Baseline: 24.6
[14]; [29]
  AIMS, Score at Baseline: 3.6
  BPRS Total, Score at Baseline: 42.6
  PANSS Cognitive Symptoms, Score at Baseline: 19.1
  PANSS Depression, Score at Baseline: 14.4
  PANSS Excitement, Score at Baseline: 13.2
  PANSS Positive Symptoms, Score at Baseline: 15.4
  SAS, Score at Baseline: 5.3
[14]; [30]
  AIMS, % Change during glycine: 32.2 (30.4) %
  BPRS Total, % Change during glycine: 13.7 (7.5) %
  PANSS Cognitive Symptoms, % Change during glycine: 9.2 (6.8) %
  PANSS Depression, % Change during glycine: 7.4 (17.1) %
  PANSS Excitement, % Change during glycine: 10.6 (20.9) %
  PANSS Negative Symptoms, % Change during glycine: 23.3 (8.4) %
  PANSS Positive Symptoms, % Change during glycine: 11.4 (11.7) %
  SAS, % Change during glycine: 17.9 (40.1) %
[14]; [31]
  AIMS, % Change during glycine: 32.2%
  SAS, % Change during glycine: 18%
Schizophrenia patients [15]
  AIMS score before glycine treatment: 1.9
Schizophrenia patients [15]; not significant vs placebo
  AIMS score after glycine treatment: 1.4
[16]
  Adverse effect leading to withdrawal during glycine administration: mild upper gastrointestinal tract discomfort
